Paper PMC7377474, “Preclinical characterization of CPL302-253, a selective inhibitor of PI3Kδ, as the candidate for the inhalatory treatment and prevention of Asthma” (PLoS ONE, 2020)
“And” between values parts separate entries of the source, which are not always exact repeats. Equal values may be shown once.

Key:
ABL1-nonphosphorylated = target: T1, ABL1-nonphosphorylated (Homo sapiens, UniProt P00519); experiment: KINOMEScan single concentration; assay type: binding; conditions: 1 μM
T1 construct: purchased Discoverex (KINOMEscan service)
Procedure: (§1) The inhibitor-kinase binding affinity was assessed in KINOMEscan™ assay (Discoverex) according to service provider’s protocol. In brief, in this binding assay the studied compound in solution is incubated with DNA-tagged kinase and kinase active-site directed ligand bound to the beads. The compound competes for binding to kinase with the immobilized ligand. After incubation beads are removed from the solution and kinase bound to ligand is quantified by qPCR. The strength of compound binding is determined based on its ability to block kinase-ligand binding. 11-point 3-fold serial dilution of CPL302-253 was used in order to determine its binding constants (Kd) against different isotypes of class I PI3K. The single concentration of CPL302-253 was used in order to determine its specificity in abroad panel of 468 human kinases. The measure of compounds affinity to each kinase in the panel was the percentage of kinase activity inhibition by tested ligand in comparison to the control.

MEK5 = target: T2, MEK5 (Homo sapiens, UniProt Q13163); experiment: KINOMEScan single concentration; assay type: binding; conditions: 1 μM
T2 construct: purchased Discoverex (KINOMEscan service)
Procedure: as §1

PIK3CA = target: T3, PIK3CA (Homo sapiens, UniProt P42336); experiment: KINOMEScan single concentration; assay type: binding; conditions: 1 μM
T3 construct: purchased Discoverex (KINOMEscan service)
Procedure: as §1

PIK3CA(C420R) = target: T4, PIK3CA(C420R) (Homo sapiens, UniProt P42336, C420R); experiment: KINOMEScan single concentration; assay type: binding; conditions: 1 μM
T4 construct: purchased Discoverex (KINOMEscan service)
Procedure: as §1

PIK3CA(E542K) = target: T5, PIK3CA(E542K) (Homo sapiens, UniProt P42336, E542K); experiment: KINOMEScan single concentration; assay type: binding; conditions: 1 μM
T5 construct: purchased Discoverex (KINOMEscan service)
Procedure: as §1

PIK3CA(E545A) = target: T6, PIK3CA(E545A) (Homo sapiens, UniProt P42336, E545A); experiment: KINOMEScan single concentration; assay type: binding; conditions: 1 μM
T6 construct: purchased Discoverex (KINOMEscan service)
Procedure: as §1

PIK3CA(E545K) = target: T7, PIK3CA(E545K) (Homo sapiens, UniProt P42336, E545K); experiment: KINOMEScan single concentration; assay type: binding; conditions: 1 μM
T7 construct: purchased Discoverex (KINOMEscan service)
Procedure: as §1

PIK3CA(H1047L) = target: T8, PIK3CA(H1047L) (Homo sapiens, UniProt P42336, H1047L); experiment: KINOMEScan single concentration; assay type: binding; conditions: 1 μM
T8 construct: purchased Discoverex (KINOMEscan service)
Procedure: as §1

PIK3CA(H1047Y) = target: T9, PIK3CA(H1047Y) (Homo sapiens, UniProt P42336, H1047Y); experiment: KINOMEScan single concentration; assay type: binding; conditions: 1 μM
T9 construct: purchased Discoverex (KINOMEscan service)
Procedure: as §1

PIK3CA(I800L) = target: T10, PIK3CA(I800L) (Homo sapiens, UniProt P42336, I800L); experiment: KINOMEScan single concentration; assay type: binding; conditions: 1 μM
T10 construct: purchased Discoverex (KINOMEscan service)
Procedure: as §1

PIK3CA(M1043I) = target: T11, PIK3CA(M1043I) (Homo sapiens, UniProt P42336, M1043I); experiment: KINOMEScan single concentration; assay type: binding; conditions: 1 μM
T11 construct: purchased Discoverex (KINOMEscan service)
Procedure: as §1

PIK3CA(Q546K) = target: T12, PIK3CA(Q546K) (Homo sapiens, UniProt P42336, Q546K); experiment: KINOMEScan single concentration; assay type: binding; conditions: 1 μM
T12 construct: purchased Discoverex (KINOMEscan service)
Procedure: as §1

PIK3CB = target: T13, PIK3CB (Homo sapiens, UniProt P42338); experiment: KINOMEScan single concentration; assay type: binding; conditions: 1 μM
T13 construct: purchased Discoverex (KINOMEscan service)
Procedure: as §1

PIK3CD = target: T14, PIK3CD (Homo sapiens, UniProt O00329); experiment: KINOMEScan single concentration; assay type: binding; conditions: 1 μM
T14 construct: purchased Discoverex (KINOMEscan service)
Procedure: as §1

PIK3CG = target: T15, PIK3CG (Homo sapiens, UniProt P48736); experiment: KINOMEScan single concentration; assay type: binding; conditions: 1 μM
T15 construct: purchased Discoverex (KINOMEscan service)
Procedure: as §1

ULK2 = target: T16, ULK2 (Homo sapiens, UniProt Q8IYT8); experiment: KINOMEScan single concentration; assay type: binding; conditions: 1 μM
T16 construct: purchased Discoverex (KINOMEscan service)
Procedure: as §1

[1] = system: panel of 468 human kinases; experiment: KINOMEScan broad panel; assay type: binding; conditions: 1 μM
Procedure: as §1

hERG = target: T17, hERG (Homo sapiens, UniProt Q12809); assay type: cell-based; conditions: 10 μM
T17 construct: purchased DiscoverX (Eurofins) SafetyScan44
Procedure: SafetyScan44 assay was performed by DiscoverX according to service provider’s protocol.

[2] = system: A549 cells co-cultured with CD8 T cells; experiment: A549 CD8 T cell co-culture, IL-33 expression; assay type: cell-based, human; conditions: 1 μM, 72 h
Procedure: A549 cells were seeded into 48-well plate. CD8 T cells were isolated from frozen human PBMC using EasySep Human CD8 T cell Isolation Kit (StemCell Technologies) according to manufacturer’s protocol. A549 were co-cultured with CD8 T cells at 1 to 5 ratios for 72 h. In some cultures, CD8 cells were activated with Human T Cell Activation/Expansion Kit (Miltenyibiotec) according to manufacturer’s protocol. After 72h CD8 cells were removed by rinsing with PBS. Adherent A549 cells were suspended in 100 μl RIPA and IL-33 was assessed in cell lysates using IL-33 Human Uncoated ELISA Kit (Invitrogen). Due to high variability in cell activation the data were normalized (measure for each experimental condition was divided by average of measures for all experimental conditions in the experiment).

neutrophils [3] = experiment: Neutrophils IL-8 production; assay type: cell-based, human; conditions: 6 h, 1 μM
Procedure: Neutrophils were isolated using EasySep Direct Human Neutrophil Isolation Kit (StemCell Technologies) from fresh whole blood of healthy donors by magnetic bead isolation according to manufacturer’s protocol. The cells were cultured in AIM V medium (Gibco). After 30 min pre-treatment with CPL302-253 (1 μM) neutrophils were stimulated with Cigarette Smoke Extract (CSE) (Murty Laboratories) at 100 μg/ml or LPS from E. coli O55:B5 (Sigma-Aldrich) at 1 μg/ml. After 6 h of incubation the culture supernatants were collected and IL-8 production was measured using IL-8 Human Uncoated ELISA Kit (Invitrogen) according to manufacturer’s protocol

neutrophils [4] = experiment: Neutrophil ROS production; assay type: cell-based, human
Procedure: Neutrophils were isolated using EasySep Direct Human Neutrophil Isolation Kit (StemCell Technologies) from fresh whole blood of healthy donors according to manufacturer’s protocol. Cells were cultured in AIM V medium (Gibco). Cells were loaded for 30 min at 37°C in humidified incubator in the presence of 5% CO2 with DCFDA (2’,7’–dichlorofluorescein diacetate), a fluorescent ROS indicator. Subsequently neutrophils were treated for 15 min with CPL302-253 and dexamethasone. In the next step 20 ng/ml of human GM-CSF (StemCell Technologies) was added to prime cells. 15 min later 1 μg/ml LPS from E. coli O55:B5 (Sigma-Aldrich) was added to induce ROS generation. The ROS accumulation in the neutrophils was assessed on FACSCalibur 2 h after LPS stimulation.

PI3Kβ = PI3Kβ (Homo sapiens, UniProt P42338); experiment: KINOMEScan competitive binding assay, Kd; parameters: purchased Discoverex (KINOMEscan service)
Procedure: as §1

T15 sequence (P48736 whole entry): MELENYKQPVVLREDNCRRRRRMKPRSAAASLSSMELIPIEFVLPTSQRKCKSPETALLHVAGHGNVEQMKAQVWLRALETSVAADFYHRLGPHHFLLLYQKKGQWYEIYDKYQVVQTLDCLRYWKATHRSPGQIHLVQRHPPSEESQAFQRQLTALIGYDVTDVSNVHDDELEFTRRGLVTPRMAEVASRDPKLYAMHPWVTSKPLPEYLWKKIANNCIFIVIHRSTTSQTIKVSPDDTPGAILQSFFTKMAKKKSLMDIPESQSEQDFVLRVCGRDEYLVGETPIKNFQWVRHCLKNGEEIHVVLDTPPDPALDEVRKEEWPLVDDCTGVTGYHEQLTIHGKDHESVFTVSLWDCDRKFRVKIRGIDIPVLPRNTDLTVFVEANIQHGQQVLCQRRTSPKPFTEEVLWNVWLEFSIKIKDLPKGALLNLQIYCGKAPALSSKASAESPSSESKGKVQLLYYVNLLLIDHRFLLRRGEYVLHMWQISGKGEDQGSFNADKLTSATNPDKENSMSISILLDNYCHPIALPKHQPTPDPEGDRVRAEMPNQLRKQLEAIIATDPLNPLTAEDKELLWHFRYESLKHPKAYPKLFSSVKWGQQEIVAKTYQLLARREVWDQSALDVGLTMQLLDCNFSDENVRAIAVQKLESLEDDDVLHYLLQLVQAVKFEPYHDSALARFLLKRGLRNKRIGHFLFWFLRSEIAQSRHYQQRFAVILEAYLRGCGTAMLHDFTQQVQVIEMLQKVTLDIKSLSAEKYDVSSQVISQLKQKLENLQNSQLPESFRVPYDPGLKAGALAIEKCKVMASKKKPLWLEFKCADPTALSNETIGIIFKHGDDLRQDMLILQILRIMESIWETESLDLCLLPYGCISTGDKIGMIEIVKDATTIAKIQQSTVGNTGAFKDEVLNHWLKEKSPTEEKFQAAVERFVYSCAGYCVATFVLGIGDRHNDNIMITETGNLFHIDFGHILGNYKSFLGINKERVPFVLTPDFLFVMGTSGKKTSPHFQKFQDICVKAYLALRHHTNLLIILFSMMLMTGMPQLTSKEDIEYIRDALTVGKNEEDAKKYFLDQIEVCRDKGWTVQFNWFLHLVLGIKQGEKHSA
T5 sequence (P42336 whole entry E542K): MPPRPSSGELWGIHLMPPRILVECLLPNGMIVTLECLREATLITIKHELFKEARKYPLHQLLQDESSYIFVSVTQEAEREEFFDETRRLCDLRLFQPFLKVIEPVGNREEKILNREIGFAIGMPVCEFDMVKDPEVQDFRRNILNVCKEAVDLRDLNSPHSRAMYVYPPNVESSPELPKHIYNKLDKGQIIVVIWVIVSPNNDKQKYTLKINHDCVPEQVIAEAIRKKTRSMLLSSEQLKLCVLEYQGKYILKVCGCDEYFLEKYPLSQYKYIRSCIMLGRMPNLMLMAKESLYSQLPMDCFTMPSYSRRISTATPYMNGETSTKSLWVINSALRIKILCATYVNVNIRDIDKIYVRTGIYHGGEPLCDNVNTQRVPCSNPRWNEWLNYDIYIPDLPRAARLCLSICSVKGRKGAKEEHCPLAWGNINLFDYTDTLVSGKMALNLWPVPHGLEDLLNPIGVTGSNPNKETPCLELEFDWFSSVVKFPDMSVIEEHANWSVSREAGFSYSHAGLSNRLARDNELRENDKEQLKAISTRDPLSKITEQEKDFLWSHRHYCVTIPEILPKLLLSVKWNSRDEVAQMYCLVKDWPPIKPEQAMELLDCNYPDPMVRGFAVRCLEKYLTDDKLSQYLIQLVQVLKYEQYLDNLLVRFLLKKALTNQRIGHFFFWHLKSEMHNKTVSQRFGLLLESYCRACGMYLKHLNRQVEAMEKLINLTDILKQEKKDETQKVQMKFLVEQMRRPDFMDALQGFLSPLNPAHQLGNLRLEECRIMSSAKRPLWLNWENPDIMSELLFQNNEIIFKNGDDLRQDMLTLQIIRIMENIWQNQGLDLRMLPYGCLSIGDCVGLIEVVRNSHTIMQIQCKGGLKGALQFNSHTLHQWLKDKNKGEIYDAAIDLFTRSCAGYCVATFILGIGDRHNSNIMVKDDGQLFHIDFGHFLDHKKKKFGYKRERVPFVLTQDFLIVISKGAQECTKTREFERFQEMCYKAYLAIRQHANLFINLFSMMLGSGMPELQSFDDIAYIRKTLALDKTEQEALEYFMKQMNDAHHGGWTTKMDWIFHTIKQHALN
T14 sequence (O00329 whole entry): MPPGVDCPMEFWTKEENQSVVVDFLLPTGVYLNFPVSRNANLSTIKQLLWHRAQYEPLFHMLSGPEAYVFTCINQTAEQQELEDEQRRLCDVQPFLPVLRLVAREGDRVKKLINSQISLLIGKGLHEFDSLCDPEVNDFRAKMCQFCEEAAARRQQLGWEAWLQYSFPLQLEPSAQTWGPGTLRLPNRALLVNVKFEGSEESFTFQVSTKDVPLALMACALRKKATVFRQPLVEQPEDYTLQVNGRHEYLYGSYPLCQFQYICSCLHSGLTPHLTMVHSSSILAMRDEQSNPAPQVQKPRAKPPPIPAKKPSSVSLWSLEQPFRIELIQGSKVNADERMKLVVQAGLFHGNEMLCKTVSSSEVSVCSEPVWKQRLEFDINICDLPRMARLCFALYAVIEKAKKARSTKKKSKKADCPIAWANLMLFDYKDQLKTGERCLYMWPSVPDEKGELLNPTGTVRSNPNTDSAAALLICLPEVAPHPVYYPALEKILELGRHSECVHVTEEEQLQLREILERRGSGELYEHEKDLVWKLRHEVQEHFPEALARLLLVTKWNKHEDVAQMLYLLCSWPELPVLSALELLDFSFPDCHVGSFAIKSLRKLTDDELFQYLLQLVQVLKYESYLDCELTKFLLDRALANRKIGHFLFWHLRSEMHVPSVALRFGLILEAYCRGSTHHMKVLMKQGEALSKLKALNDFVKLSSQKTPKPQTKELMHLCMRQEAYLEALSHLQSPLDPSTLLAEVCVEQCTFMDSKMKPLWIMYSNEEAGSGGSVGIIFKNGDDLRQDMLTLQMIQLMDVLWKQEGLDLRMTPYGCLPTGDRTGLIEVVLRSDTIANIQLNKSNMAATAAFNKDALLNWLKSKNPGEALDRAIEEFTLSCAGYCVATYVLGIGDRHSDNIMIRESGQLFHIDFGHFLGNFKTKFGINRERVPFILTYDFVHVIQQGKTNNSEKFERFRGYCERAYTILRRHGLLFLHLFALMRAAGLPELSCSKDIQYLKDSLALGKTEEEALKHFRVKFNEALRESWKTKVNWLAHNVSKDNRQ
T2 sequence (Q13163 whole entry): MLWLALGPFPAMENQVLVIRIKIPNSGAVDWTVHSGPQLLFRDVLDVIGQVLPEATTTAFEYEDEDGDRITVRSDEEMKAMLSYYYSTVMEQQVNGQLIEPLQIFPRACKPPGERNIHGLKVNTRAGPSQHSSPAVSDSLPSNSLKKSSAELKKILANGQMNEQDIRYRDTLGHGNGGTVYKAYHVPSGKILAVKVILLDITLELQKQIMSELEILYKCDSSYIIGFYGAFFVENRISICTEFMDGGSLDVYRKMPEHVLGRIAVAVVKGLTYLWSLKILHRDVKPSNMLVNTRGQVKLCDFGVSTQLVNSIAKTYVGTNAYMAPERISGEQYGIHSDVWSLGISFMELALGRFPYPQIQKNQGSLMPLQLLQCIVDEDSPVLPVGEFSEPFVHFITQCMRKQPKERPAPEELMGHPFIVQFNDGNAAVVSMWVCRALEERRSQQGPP
T17 sequence (Q12809 whole entry): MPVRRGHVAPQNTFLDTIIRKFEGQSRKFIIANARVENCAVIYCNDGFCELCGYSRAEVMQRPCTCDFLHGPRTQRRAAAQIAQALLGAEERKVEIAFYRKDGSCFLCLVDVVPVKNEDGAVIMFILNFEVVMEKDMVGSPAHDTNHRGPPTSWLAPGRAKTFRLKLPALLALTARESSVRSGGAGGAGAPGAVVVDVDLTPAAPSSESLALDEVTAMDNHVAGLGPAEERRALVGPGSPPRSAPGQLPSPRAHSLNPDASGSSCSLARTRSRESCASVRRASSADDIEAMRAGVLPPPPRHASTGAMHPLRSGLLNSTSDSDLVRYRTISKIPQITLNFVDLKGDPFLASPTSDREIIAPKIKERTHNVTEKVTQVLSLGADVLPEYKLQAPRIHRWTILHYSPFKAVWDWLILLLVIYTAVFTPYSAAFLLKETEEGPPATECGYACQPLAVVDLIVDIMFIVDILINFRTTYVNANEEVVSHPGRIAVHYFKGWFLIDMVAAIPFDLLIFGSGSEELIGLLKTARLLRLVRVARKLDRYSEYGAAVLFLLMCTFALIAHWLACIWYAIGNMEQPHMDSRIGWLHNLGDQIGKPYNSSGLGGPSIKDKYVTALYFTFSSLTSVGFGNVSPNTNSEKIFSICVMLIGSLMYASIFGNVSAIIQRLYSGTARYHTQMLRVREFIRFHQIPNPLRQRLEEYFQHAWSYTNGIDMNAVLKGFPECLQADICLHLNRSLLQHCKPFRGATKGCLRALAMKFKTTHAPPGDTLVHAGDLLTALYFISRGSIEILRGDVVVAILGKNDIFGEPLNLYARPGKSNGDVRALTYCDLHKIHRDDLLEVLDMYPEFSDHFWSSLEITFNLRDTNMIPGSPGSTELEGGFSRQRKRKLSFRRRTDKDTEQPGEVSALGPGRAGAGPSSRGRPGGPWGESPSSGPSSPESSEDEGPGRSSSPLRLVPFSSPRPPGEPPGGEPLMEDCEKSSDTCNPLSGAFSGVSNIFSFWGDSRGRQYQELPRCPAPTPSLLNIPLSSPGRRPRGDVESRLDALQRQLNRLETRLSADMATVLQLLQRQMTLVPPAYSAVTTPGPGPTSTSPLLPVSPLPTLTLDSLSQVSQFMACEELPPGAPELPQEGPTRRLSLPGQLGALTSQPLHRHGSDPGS
T11 sequence (P42336 whole entry M1043I): as the sequence (P42336 whole entry E542K) above, with K542E, M1043I counted along it
T4 sequence (P42336 whole entry C420R): as the sequence (P42336 whole entry E542K) above, with C420R, K542E counted along it
T8 sequence (P42336 whole entry H1047L): as the sequence (P42336 whole entry E542K) above, with K542E, H1047L counted along it
T6 sequence (P42336 whole entry E545A): as the sequence (P42336 whole entry E542K) above, with K542E, E545A counted along it
T9 sequence (P42336 whole entry H1047Y): as the sequence (P42336 whole entry E542K) above, with K542E, H1047Y counted along it
T10 sequence (P42336 whole entry I800L): as the sequence (P42336 whole entry E542K) above, with K542E, I800L counted along it

CC(C)(C)N1CCN(Cc2cc3nc(-c4cncc5[nH]ccc45)cc(N4CCOCC4)n3n2)CC1 [CPL302-253]
Remaining binding (%) (ABL1-nonphosphorylated): 36% | Remaining binding (%) (MEK5): 35% | Remaining binding (%) (PIK3CA): 96% | Remaining binding (%) (PIK3CA(C420R)): 12% | Remaining binding (%) (PIK3CA(E542K)): 82% | Remaining binding (%) (PIK3CA(E545A)): 45% | Remaining binding (%) (PIK3CA(E545K)): 54% | Remaining binding (%) (PIK3CA(H1047L)): 92% | Remaining binding (%) (PIK3CA(H1047Y)): 0% | Remaining binding (%) (PIK3CA(I800L)): 44% | Remaining binding (%) (PIK3CA(M1043I)): 100% | Remaining binding (%) (PIK3CA(Q546K)): 99% | Remaining binding (%) (PIK3CB): 42% | Remaining binding (%) (PIK3CD): 1.1% | Remaining binding (%) (PIK3CG): 94% | Remaining binding (%) (ULK2): 33% | inhibition of binding to specific substrate, kinases other than members of PI3K [1]: ≤ 70% | % Response hERG Blocker (hERG): -2.7% | IL-33 expression, normalized (Fig 3D), single replicates ([2]; A549 CD8 A (activated CD8), divided by average of all conditions): 0.4059 and 0.7122 and 0.4707 | IL-33 expression in co-cultures ([2]; A549 with activated CD8 cells): strong inhibition of IL-33 expression | IL-8 release (Fig 4B), single replicates (neutrophils [3]; 1 μg/ml LPS): 471 and 860 and 464 | IL-8 release (Fig 4A), single replicates (neutrophils [3]; 100 μg/ml CSE): 378 and 136 and 362 | IL-8 production by neutrophils (neutrophils [3]; after CSE or LPS stimulation): reduced IL-8 production | neutrophils stained positively by ROS fluorescent indicator (Fig 4C), single replicates (neutrophils [4]; GM-CSF 20 ng/ml and LPS 1 μg/ml, 2 h): 52 and 10 and 17 and 22 and 2 and 9 | ROS accumulation in neutrophils (neutrophils [4]; GMCSF/LPS stimulation): reduced ROS accumulation | Kd (PI3Kβ): 390 nM
